Measured values as given in patent US11001569B2, “6-membered heteroaromatic substituted cyanoindoline derivatives as NIK inhibitors” (Janssen Pharmaceutica NV, priority 2016, dated 2021).
Read-outs that look alike come from different tables or passages of the source.

Assays:
[1] = biological target: recombinant human NF-kappaB-inducing Kinase (NIK/MAP3K14) (Homo sapiens, UniProt Q99558); assay: Inhibition of auto-phosphorylation of recombinant human NIK/MAP3K14 activity (AlphaScreen); type: biochemical; settings: 25 microM ATP, averaged over all measurements on all batches
[2] = system: JJN-3 (NIK translocated) multiple myeloma cells; assay: Antiproliferative activity on JJN-3 multiple myeloma cells (CellTiter-Glo); type: cell-based, human; settings: JJN-3 (NIK translocated) cells, 96 hr treatment, averaged values, read-out: JJN-3 Proliferation inhibition (IC50 (nM))
In short: (§1)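 Cells plated at 15000 (JJN3) or 20000 (KMS12BM) per well and treated 96 h at 37° C, 5% CO2, final DMSO 0.3%, 9-point 1:3 dilutions. Viability by CellTiter-Glo luminescence; time-zero blank subtracted, growth expressed as percent of untreated control.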

[3] = system: KMS12-BM (NIK WT) multiple myeloma cells; assay: Antiproliferative activity on KMS12-BM multiple myeloma cells (CellTiter-Glo); type: cell-based, human; settings: 96 hr treatment, averaged values, read-out: KMS-12 Proliferation inhibition (IC50 (nM))
In short: as §1

[4] = system: P-IKKα levels in L363 (NIK translocated multiple myeloma) cells; assay: Effect of compounds on P-IKKα levels in L363 cells (Mesoscale sandwich immuno-assay); type: cell-based, human; settings: 2 hr treatment, averaged values, read-out: Inhibition of pIKKα_L-363 (IC50 (nM))
Description: Effect of Compounds on P-IKKα Levels in L363 (NIK Translocated Multiple Myeloma) Cells
All compounds tested were dissolved in DMSO and further dilutions were made in culture medium. Final DMSO concentration was 1% (v/v) in cell assays. The human L363 cells (ATCC) were cultured in RPMI 1640 medium supplemented with GlutaMax and 10% fetal calf serum (PAA). Cells were routinely maintained at densities of 0.2×10^6 cells per ml-1×10^6 cells per ml at 37° C. in a humidified 5% CO2 atmosphere. Cells were passaged twice a week splitting back to obtain the low density. Cells were seeded in 96 well plates (Nunc 167008) at 2×10^6 per ml media in a volume of 75 μl per well plus 25 μl 1 μg/ml recombinant human B-cell activating factor (BAFF/BLyS/TNFSF13B). Seeded cells were incubated at 37° C. in a humidified 5% CO2 atmosphere for 24 hr. Drugs and/or solvents were added (20 μl) to a final volume of 120 μl. Following 2 hr treatment plates were removed from the incubator and cell lysis was achieved by the addition of 30 μl 5× lysis buffer followed by shaking on a plate shaker at 4° C. for 10 min. At the end of this incubation lysed cells were centrifuged at 800×g for 20 min at 4° C. and the lysate was assessed for P-IKK levels by sandwich immuno-assay carried out in anti-rabbit antibody coated Mesoscale plates. Within an experiment, the results for each treatment were the mean of 2 replicate wells. For initial screening purposes, compounds were tested using an 8 point dilution curve (serial 1:3 dilutions). […] The blank incubation value was subtracted from all control and sample values. To determine the IC50 a sigmoidal curve was fitted to the plot of % inhibition of control P-IKKα levels versus Log10 compound concentration.

recombinant human NF-kappaB-inducing Kinase (NIK/MAP3K14), sequence (Q99558 whole entry): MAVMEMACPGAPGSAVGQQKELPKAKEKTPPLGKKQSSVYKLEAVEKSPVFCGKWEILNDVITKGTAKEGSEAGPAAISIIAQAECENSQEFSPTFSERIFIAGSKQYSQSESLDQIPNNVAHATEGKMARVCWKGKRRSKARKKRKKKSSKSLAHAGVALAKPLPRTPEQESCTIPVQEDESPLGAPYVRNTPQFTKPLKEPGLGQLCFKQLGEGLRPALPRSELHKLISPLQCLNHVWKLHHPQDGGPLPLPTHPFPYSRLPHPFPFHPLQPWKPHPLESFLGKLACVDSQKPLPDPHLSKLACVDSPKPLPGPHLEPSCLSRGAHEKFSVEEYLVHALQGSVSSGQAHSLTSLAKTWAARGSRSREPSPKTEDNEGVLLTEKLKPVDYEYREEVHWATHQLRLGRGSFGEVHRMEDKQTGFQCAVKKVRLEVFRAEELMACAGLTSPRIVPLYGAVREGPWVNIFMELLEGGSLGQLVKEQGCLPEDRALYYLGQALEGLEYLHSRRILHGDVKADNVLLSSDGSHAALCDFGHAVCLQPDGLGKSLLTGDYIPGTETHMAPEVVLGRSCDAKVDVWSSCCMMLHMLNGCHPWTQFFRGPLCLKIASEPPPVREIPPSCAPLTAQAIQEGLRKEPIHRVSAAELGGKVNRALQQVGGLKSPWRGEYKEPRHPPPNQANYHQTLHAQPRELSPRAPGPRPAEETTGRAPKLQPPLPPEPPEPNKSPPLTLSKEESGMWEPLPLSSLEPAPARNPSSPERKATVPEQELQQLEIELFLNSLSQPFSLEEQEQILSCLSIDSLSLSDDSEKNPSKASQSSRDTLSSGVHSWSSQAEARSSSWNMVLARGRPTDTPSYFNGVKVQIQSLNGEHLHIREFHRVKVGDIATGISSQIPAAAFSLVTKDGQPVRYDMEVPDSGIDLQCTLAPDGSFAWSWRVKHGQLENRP

Compound: Cc1cnc(OCC2CC2)c(Nc2nccc(-c3cc(C#N)c4c(c3)[C@@](C)(CO)CN4)n2)c1 [Compound 86]
- IC50 [1]: 12 nM
- IC50 ([2]; Homo sapiens, JJN-3, 96 h): 1180 nM
- melting point: 206 °C
- IC50 ([3]; Homo sapiens, KMS-12-BM, 96 h): > 10000 nM
- IC50 ([4]; Homo sapiens, L-363, 2 h): 53.7 nM

Compound: Cc1nc(/C=C/C(=O)N(C)C)ccc1Nc1nccc(-c2cc(C#N)c3c(c2)[C@@](C)(CO)CN3)n1 [Compound 73]
- IC50 [1]: 1.6 nM
- IC50 ([2]; Homo sapiens, JJN-3, 96 h): 144 nM
- melting point: 231 °C
- IC50 ([3]; Homo sapiens, KMS-12-BM, 96 h): ~234 nM
- IC50 ([4]; Homo sapiens, L-363, 2 h): ~13 nM

Compound: CCCCc1ncc(C#N)cc1Nc1nccc(-c2cc(C#N)c3c(c2)[C@@](C)(CO)CN3)n1 [Compound 66]
- IC50 [1]: 3.3 nM
- IC50 ([2]; Homo sapiens, JJN-3, 96 h): 41 nM
- melting point: 178 °C
- IC50 ([3]; Homo sapiens, KMS-12-BM, 96 h): > 10000 nM
- IC50 ([4]; Homo sapiens, L-363, 2 h): ~141 nM

Compound: Cc1cnc(OCC2COCCN2C)c(Nc2nccc(-c3cc(C#N)c4c(c3)[C@@](C)(CO)CN4)n2)c1 (single isomer, unassigned) [Compound 148]
- IC50 [1]: 8.5 nM
- IC50 [2]: 135 nM
- melting point: 154 °C
- IC50 ([3]; Homo sapiens, KMS-12-BM, 96 h): > 10000 nM
- IC50 ([4]; Homo sapiens, L-363, 2 h): 13.8 nM

Compound: Cc1cnc(CCNC2CC2)c(Nc2nccc(-c3cc(C#N)c4c(c3)[C@@](C)(CO)CN4)n2)c1 [Compound 182]
- IC50 [1]: 15.1 nM
- IC50 ([2]; Homo sapiens, JJN-3, 96 h): 49 nM
- melting point: 156 °C
- IC50 ([3]; Homo sapiens, KMS-12-BM, 96 h): > 10000 nM
- IC50 ([4]; Homo sapiens, L-363, 2 h): 110 nM

Compound: CC(C)(O)c1ccc(Nc2nccc(-c3cc(C#N)c4c(c3)[C@@](C)(CO)CN4)n2)c(CCC2CC2)n1 [Compound 81]
- IC50 [1]: 4.7 nM
- IC50 ([2]; Homo sapiens, JJN-3, 96 h): 513 nM
- melting point: 318 °C
- IC50 ([3]; Homo sapiens, KMS-12-BM, 96 h): > 10000 nM
- IC50 ([4]; Homo sapiens, L-363, 2 h): 20.9 nM

Compound: CN(C)C(=O)CCc1ccc(Nc2nccc(-c3cc(C#N)c4c(c3)[C@@](C)(CO)CN4)n2)c(CCC2CC2)n1 [Compound 89]
- IC50 [1]: 3.6 nM
- IC50 ([2]; Homo sapiens, JJN-3, 96 h): 912 nM
- melting point: 301 °C
- IC50 ([3]; Homo sapiens, KMS-12-BM, 96 h): > 10000 nM
- IC50 ([4]; Homo sapiens, L-363, 2 h): 14.8 nM

Compound: Cc1ncc(C#N)cc1Nc1nccc(-c2cc(C#N)c3c(c2)[C@@](C)(CO)CN3)n1 [Compound 50]
- IC50 [1]: 1.3 nM
- IC50 ([2]; Homo sapiens, JJN-3, 96 h): 145 nM
- melting point: 247 °C
- IC50 ([3]; Homo sapiens, KMS-12-BM, 96 h): 6610 nM
- IC50 ([4]; Homo sapiens, L-363, 2 h): 4.2 nM

Compound: Cc1cc(Nc2nccc(-c3cc(C#N)c4c(c3)[C@@](C)(CO)CN4)n2)c(C)nc1OCC1(C)COC1 [Compound 159]
- IC50 [1]: 5.6 nM
- IC50 ([2]; Homo sapiens, JJN-3, 96 h): 89 nM
- melting point: 179 °C
- IC50 ([3]; Homo sapiens, KMS-12-BM, 96 h): > 10000 nM
- IC50 ([4]; Homo sapiens, L-363, 2 h): 5.9 nM

Compound: Cc1cnc(OC2CCN(C)CC2)c(Nc2nccc(-c3cc(C#N)c4c(c3)[C@@](C)(CO)CN4)n2)c1 [Compound 146]
- IC50 [1]: 2.8 nM
- IC50 ([2]; Homo sapiens, JJN-3, 96 h): 5.2 nM
- melting point: 135 °C
- IC50 ([3]; Homo sapiens, KMS-12-BM, 96 h): 7080 nM
- IC50 ([4]; Homo sapiens, L-363, 2 h): 4.1 nM

Compound: CN1CCCC(COc2ncc(Cl)cc2Nc2nccc(-c3cc(C#N)c4c(c3)[C@@](C)(CO)CN4)n2)C1 (single isomer, unassigned) [Compound 55]
- IC50 [1]: 3.8 nM
- IC50 [2]: 69 nM
- melting point: 204 °C
- IC50 [3]: 1350 nM
- IC50 [4]: 67.6 nM

Compound: C[C@]1(CO)CNc2c(C#N)cc(-c3ccnc(Nc4cc(C#N)cnc4CCC4CC4)n3)cc21 [Compound 64]
- IC50 [1]: 4.7 nM
- IC50 ([2]; Homo sapiens, JJN-3, 96 h): 35 nM
- melting point: 145 °C
- IC50 ([3]; Homo sapiens, KMS-12-BM, 96 h): 6460 nM
- IC50 ([4]; Homo sapiens, L-363, 2 h): 27.5 nM

Compound: Cc1cnc(OC2CCN(C)CC2F)c(Nc2nccc(-c3cc(C#N)c4c(c3)[C@@](C)(CO)CN4)n2)c1 (some centres unmarked) [Compound 155]
- IC50 [1]: 12 nM
- IC50 [2]: 81 nM
- melting point: 220 °C
- IC50 [3]: ~2880 nM
- IC50 [4]: 19.5 nM

Compound: Cc1ncc(CO)cc1Nc1nccc(-c2cc(C#N)c3c(c2)[C@@](C)(CO)CN3)n1 [Compound 169]
- IC50 [1]: 2.7 nM
- IC50 ([2]; Homo sapiens, JJN-3, 96 h): 263 nM
- melting point: > 260 °C
- IC50 ([3]; Homo sapiens, KMS-12-BM, 96 h): 4900 nM
- IC50 ([4]; Homo sapiens, L-363, 2 h): 9.9 nM

Compound: Cc1ncc(C2CCN(C)CC2)cc1Nc1nccc(-c2cc(C#N)c3c(c2)[C@@](C)(CO)CN3)n1 [Compound 164]
- IC50 [1]: 102 nM
- IC50 ([2]; Homo sapiens, JJN-3, 96 h): 1180 nM
- melting point: 121 °C
- IC50 ([3]; Homo sapiens, KMS-12-BM, 96 h): 1660 nM
- IC50 ([4]; Homo sapiens, L-363, 2 h): 1180 nM

Compound: CN(C)CCn1cc(Cl)cc(Nc2nccc(-c3cc(C#N)c4c(c3)[C@@](C)(CO)CN4)n2)c1=O [Compound 12i]
- IC50 [1]: 1.1 nM
- IC50 ([2]; Homo sapiens, JJN-3, 96 h): 18 nM
- melting point: 198 °C
- IC50 ([3]; Homo sapiens, KMS-12-BM, 96 h): 813 nM
- IC50 ([4]; Homo sapiens, L-363, 2 h): 0.9 nM
